Data from patent US8486991B2, “Enantiomerically pure phosphoindoles as HIV inhibitors” (Idenix Pharmaceuticals, Inc., priority 2006, dated 2013).
“And” between values parts separate entries of the source, which are not always exact repeats. Equal entries are not always repeated. Where two headings read alike, the source gives them in different places.

Legend:
[1] = test system: HIV-1 W.T. (BH10) virus; assay: PBMC cell assay, W.T. (BH10); format: cell-based
[2] = test system: HIV-1 BH10 wild-type virus; assay: microbe, parasite or virus in culture; format: cell-based
[3] = Cellular cytotoxicity, 4 days, MTS, H9; format: cell-based; details: human, H9 cells (lymphoblastic T cells), Table 21, read-out: Average CC50 Values ± Standard Deviation, H9
Protocol: (§2) Cell viability was measured by standard MTT or MTS staining.
(§3) Following drug exposure for 4 days, cell viability was measured by MTS staining and CC50 values were determined. Drug concentrations ranged from 0.005 μM to 100 μM.

[4] = test system: HIV-1 BH10 W.T.; assay: Anti-HIV-1 BH10 W.T. activity in presence of HS or AAG; format: cell-based; details: for EC50: Human immunodeficiency virus 1
[5] = test system: HIV-1 K103N clinical isolates 4937 and 5002; assay: microbe, parasite or virus in culture; format: cell-based; details: Human immunodeficiency virus 1, PBMC, read-out: Average EC50 Values ± Standard Deviation, K103N
[6] = target: human DNA polymerase beta (Homo sapiens, UniProt P06746); assay: Human cellular DNA polymerase beta assay; format: biochemical
Excerpt: HIV RT, like other viral polymerase, shares limited structural homology with the cellular DNA polymerases responsible for normal nuclear and mitochondrial DNA synthesis and repair. This raises the formal possibility that inhibitors of HIV RT might inhibit cellular polymerases, resulting in cellular toxicity. In particular, inhibition of polymerase gamma has the potential to result in mitochondrial toxicity. The ability of Compound I and Compound III to inhibit cellular DNA polymerases was assessed using standard in vitro assays (Table 5).

[7] = Cellular cytotoxicity, 4 days, six HIV-1 host cell lines (ranges); format: cell-based; details: human, read-out: Mean CC50 Range
Protocol: as §2, §3

[8] = test system: HIV-1 BH10 in U937 cells; assay: Drug susceptibility assay, BH10 in U937 cells; format: cell-based; details: Human immunodeficiency virus 1, U-937; Table 17; read-out: Average EC50 Values ± Standard Deviation, host U937, virus BH10
Excerpt: (§1) The virus and host-cell dependency of Compound I, Compound III and control drugs was further examined in drug susceptibility assays performed across 3 different subtype B wild-type HIV-1 strains and 5 different cell lines.

[9] = Cellular cytotoxicity, 4 days, MTS, MOLT-4; format: cell-based; details: human, MOLT-4 cells (T lymphoblastic leukemia cell line), Table 21, read-out: Average CC50 Values ± Standard Deviation, MOLT-4
Protocol: as §2, §3

[10] = Cellular cytotoxicity, 4 days, MTS, MT-2; format: cell-based; details: human, MT-2 cells (leukemia T cells), Table 21, read-out: Average CC50 Values ± Standard Deviation, MT-2
Protocol: as §2, §3

[11] = Cytotoxicity in PBMC, 3 days, MTT
Protocol: Cell viability was determined via MTT staining.

[12] = test system: HIV-1 BH10 wild-type virus; assay: CPE / cell protection assay, MT-4 cells, BH10 wild-type; format: cell-based; details: for EC50: Human immunodeficiency virus 1, MT4
Protocol: The activity of the compounds was also assessed with the same virus and cell type using a different assay readout based on cytopathic effect (CPE).
MT-4 cells (Source: NIH Catalog #120) were seeded onto 96-well cell culture plates (1×10^4 cells per well in 50 μL).
The final DMSO concentration in the assay was 0.5% in 120 μL. Cell cultures were then incubated at 37° C./5% CO2 for 4 days. Then, Cell Titer 96 AQueous One Solution Cell Proliferation Assay (Promega) was used to measure cell viability. Briefly, the One Solution Reagent was added directly to culture wells (20 μL/well), incubated for 5 hours, and the absorbance was recorded at 492 nm using the Sunrise Tecan Spectrophotometer.
The EC50 values were determined from the percent inhibition versus concentration data using a sigmoidal non-linear regression analysis based on four parameters with Tecan Magellan software.

[13] = Longer term cytotoxicity, 12 days, MTS, HuH7; details: human, HuH7 liver cells
Protocol: as §2
Cells were repeatedly treated with a range of drug concentrations (0.005 to 100 μM) for 9 (HeLa) or 12 days (HuH7, HepG2).

[14] = test system: HIV-1 IIIB in MOLT-4 cells; assay: Drug susceptibility assay, IIIB in MOLT-4 cells; format: cell-based; details: Human immunodeficiency virus 1, IIIB, MOLT-4; Table 17; read-out: Average EC50 Values ± Standard Deviation, host MOLT-4, virus IIIB
Excerpt: as §1

[15] = test system: HIV-1 IIIB in U937 cells; assay: Drug susceptibility assay, IIIB in U937 cells; format: cell-based; details: Human immunodeficiency virus 1, IIIB, U-937; Table 17; read-out: Average EC50 Values ± Standard Deviation, host U937, virus IIIB
Excerpt: as §1

[16] = Human immunodeficiency virus 1, MT4, 96 h, read-out: mean EC50, wild-type BH10 virus in MT-4 cells, p24 ELISA, 4 day
[17] = Human immunodeficiency virus 1, MT4, read-out: Average EC50 Values ± Standard Deviation, host MT-4, virus BH10, Table 17
[18] = Table 19, AAG 1 mg/ml, read-out: Average EC50 Values ± Standard Deviation, 10% Fetal Bovine Serum + AAG
[19] = Table 19, AAG 1 mg/ml, read-out: Average EC50 Values ± Standard Deviation, 45% Human Serum + AAG
[20] = Table 19, read-out: Average EC50 Values ± Standard Deviation, 10% Fetal Bovine Serum
[21] = Table 19, read-out: Average EC50 Values ± Standard Deviation, 45% Human Serum
[22] = text b887, read-out: mean EC50 values, 45% HS+AAG
[23] = Table 20, vs 10% FBS only, listed as Cmpd III
[24] = Table 5, read-out: Average IC50 Values ± Standard Deviation, DNA Pol Beta
[25] = Table 8, CPE readout, read-out: Average EC50 Values ± Standard Deviation, W.T.
[26] = range over the three agents, read-out: mean EC50 values, WT BH10 virus, CPE assay

Row | Compound | EC50 [2, 16] | EC50 [2, 17] | CC50 at 4 days [3] | EC50 [4, 18] | EC50 [4, 19] | EC50 [4, 20] | EC50 [4, 21] | EC50 [4, 22] | EC50 [5] | Average IC50 Values ± Standard Deviation, DNA Pol Beta ([6]; Table 5) | IC50 [6, 24] | CC50 at 4 days [7] | EC50 [8] | CC50 at 4 days [9] | CC50 at 4 days [10] | EC50 [12, 25] | EC50 [12, 26] | CC50 at 12 days [13] | EC50 [14] | EC50 [15] | also measured
1 | CO[P@](=O)(c1cc(C)cc(/C=C/C#N)c1)c1c(C(N)=O)[nH]c2ccc(Cl)cc12 [Compound III, (2-Carbamoyl-5-chloro-1H-indol-3-yl)-[3-((E)-2-cyano-vinyl)-5-methyl-phenyl]-(R)-phosphinic acid methyl ester] | 1.2 nM | 1.2 ± 0.6 nM | 31300 ± 5200 nM | 2.8 ± 0.4 nM | 32.6 ± 7.3 nM | 1.2 ± 0.4 nM | 21.9 ± 11.7 nM | 32.6 nM | 0.9 ± 0.4 nM | did not reach an IC50 | ≥ 479000 nM | 14800 to 50000 nM | 1.3 ± 0.6 nM | 14800 ± 1000 nM | 25900 ± 2100 nM | 0.2 ± 0.1 nM | 0.1 to 0.7 nM | 31500 ± 3370 nM | 0.6 ± 0.1 nM | 0.5 ± 0.1 nM | EC50 ([1]; Human immunodeficiency virus 1, PBMC, read-out: Average EC50 Values ± Standard Deviation, W.T. (BH10)): 0.4 ± 0.1 nM; EC50 ([1]; Human immunodeficiency virus 1, PBMC, read-out: mean EC50, BH-10 strain in human PBMC): 0.4 nM; Fold Change, W.T. ([2]; Table 7, EC50 mutant / EC50 wild-type): 1 fold; EC50 ([2]; read-out: mean EC50, wild-type BH10 virus in MT-4 cells, p24 ELISA, 4 day): ~1 nM and 1 nM; Fold Change, 10% Fetal Bovine Serum ([4]; Table 20): 1 fold; Fold Change, 45% Human Serum ([4]; Table 20, vs 10% FBS only): 17.0 ± 6.3 fold; Fold Change, 45% Human Serum + AAG ([4]; Table 20, vs 10% FBS only): 19.5 fold and 24.8 fold; Fold Change, 10% Fetal Bovine Serum + AAG [4, 23]: 2.1 ± 0.5 fold; Fold Change, 45% Human Serum + AAG [4, 23]: 24.8 ± 3.8 fold; CC50 at 3 days ([11]; human, stimulated primary blood mononuclear cells (PBMC)): 66900 nM; EC50 ([12]; Cell Protection Assay tables, unit inferred, read-out: EC50, BH10): 0.15 ± 0.11 nM; Fold Change, W.T. ([12]; Table 9, CPE): 1 fold
2 | O=C1Nc2ccc(Cl)cc2C(C#CC2CC2)(C(F)(F)F)O1 (stereo not shown) [EFV, 6-chloro-4-cyclopropylethynyl-4-trifluoromethyl-1,4-dihydro-2H-3,1-benzoxazin-2-one, reference compound] | ~1 nM | 1.2 ± 0.8 nM | 50000 ± 9000 nM | 5 ± 2.3 nM | 11.6 ± 7.4 nM | 1.6 ± 0.5 nM | 11.5 ± 3.9 nM | 11.6 nM | 41.4 ± 36.9 nM | did not reach an IC50 | 314000 ± 177000 nM | 23200 to 51000 nM | 1.9 ± 0.8 nM | 41700 ± 3400 nM | 24600 ± 4500 nM | 0.6 ± 0.1 nM | 0.1 to 0.7 nM | 75700 ± 12400 nM | 0.9 ± 0.2 nM | 1.5 ± 0.8 nM | EC50 ([1]; Human immunodeficiency virus 1, Table 14, PBMC, read-out: Average EC50 Values ± Standard Deviation, W.T. (BH10)): 0.9 ± 0.3 nM; IC50 ([6]; Table 6, N=4, read-out: Mean IC50 Values ± Standard Deviation, DNA Pol Beta): 314000 ± 177000 nM; CC50 at 3 days [11]: 70900 ± 7600 nM
